Blank lines part the entries; values can stand above or below the compound they belong to.
Legend:
[1] = tested on: bovine cultured trabecular meshwork cells; assay: Effects on morphology of trabecular meshwork cells (change in cell area by image analysis); type: cell-based; conditions: Bos taurus, 3 h, 37° C., three hours, read-out: EC50 (concentration required to reduce the cell area of the trabecular meshwork cells by 50%)
From the text: A possibility has been reported that drugs having effects of increasing aqueous humor outflow can be found by evaluating effects of drugs on morphology of cultured trabecular meshwork cells (Invest. Ophthalmol. Vis. Sci., 33, 2631-2640 (1992)). Accordingly, effects of the present compounds on morphology of bovine cultured trabecular meshwork cells were studied in the similar manner to the method described in the above-mentioned literature. Experimental Method Morphological changes in bovine cultured trabecular meshwork cells by adding the present compounds were quantitatively evaluated by image analysis. […] Bovine trabecular meshwork cells (passage number 1 to 5) cultured in a basal medium for mammalian cell culture d-MEM (Dulbecco's Modified Eagle Medium, manufactured by Gibco Co., Ltd.) containing fetal bovine serum (10%), amphotericin B (2.5 μg/ml) and gentamicin (50 μg/ml) were treated with a trypsin-EDTA solution (0.05% trypsin, 0.53 mM EDTA·4 Na) 24 hours before the later drug treatment and seeded in a 24-well plate (10^4 cells/well). Twelve hours before the later drug treatment, the cells were washed with phosphate-buffered physiological saline, and then the medium was replaced by D-MEM containing amphotericin B (2.5 μg/ml) and gentamicin (50 μg/ml) (hereinafter referred to as "medium A"). […] A test compound was dissolved in dimethyl sulfoxide (DMSO), and the medium A was added to the solution, followed by sterilizing the solution by filtration. The medium A was further added to the solution to dilute it at a prescribed concentration. This diluted solution was maintained isothermally under a 5% carbon dioxide gas atmosphere at 37° C. for one hour, from one hour before the later drug treatment to prepare a test compound solution. Method of Measurement First, cells were photographed using a well-scanner one hour before the drug treatment. Next, the medium of the cells was replaced by the test compound solution, and the cells were treated with the drug and incubated under a 5% carbon dioxide gas atmosphere at 37° C. for three hours. Then, the same cells as those photographed one hour before the drug treatment were photographed using the well-scanner. Image Analysis Photographed cell images were incorporated from the photographs into an image analysis system with a CCD camera (manufactured by […] Co., Ltd.). Outlines of the incorporated cell images were traced, and areas were measured. Degrees of the morphological changes made by the test compounds on the trabecular meshwork cells are expressed by the following rates of changes in areas (%).

[2] = tested on: laser-induced high intraocular pressure monkey models (intraocular pressure); assay: Intraocular pressure-lowering effects by instillation using laser-induced high intraocular pressure animal models; type: in vivo, cynomolgus monkey; conditions: for Intraocular pressure change difference: 0.3% solution instilled twice a day, six hours after morning instillation, vs vehicle, average of five eyes
From the text: A method of evaluating intraocular pressure-lowering effects of the drugs by instilling them into laser-induced high intraocular pressure monkey models has been reported (Arch. Opththalmol., 105, 249-252 (1987)). Accordingly, intraocular pressure-lowering effects by instilling the present compound were studied in the similar manner to the method described in the above-mentioned literature.
Male cynomolgus monkeys weighing 5 to 6 kg were used for experiment. Five eyes of four monkeys of which intraocular pressure had been elevated by irradiating trabecular meshwork of the monkeys at 100 to 150 spots every one week with an argon laser (Coherent Radiation, Models 800) were used. Laser irradiation conditions were set at 1000 mW and 0.2 sec.
Preparation of Test Compound Solution
A test compound was dissolved in purified water, then concentrated glycerin and sodium chloride were added to the solution to adjust osmotic pressure to 1, and 0.1 M aqueous sodium hydroxide solution was added thereto to adjust pH to 7.4 and to prepare a 0.3% solution. Then, the solution was sterilized by filtration to prepare a test compound solution.
Method of Administering Drugs
First, in order to study effects of a vehicle on intraocular pressure, only vehicle was instilled twice a day (at 10 a.m. and 5 p.m.) for one week continuously. Then, the test compound solution was instilled twice a day (at 10 a.m. and 5 p.m.) for one week continuously.
Intraocular pressure was measured with an applanation tonometer before administering the drug and a prescribed period after the instillation. Chlorpromazine (1 mg/kg) was administered intramuscularly to the cynomolgus monkey one hour before the measurement to sedate the monkey, one drop of a 0.4% oxybuprocaine hydrochloride eyedrops, which is a local anesthetic, was instilled into the monkey, and then the intraocular pressure was measured.
Intraocular pressure change difference (mmHg)=[IOP(D-6)-IOP(D-0)]-[IOP(V-6)-IOP(V-0)]
IOP(D-6): Intraocular pressure measured six hours after the morning instillation of the test compound solution
IOP(D-0): Intraocular pressure measured before administering the test compound solution
IOP(V-6): Intraocular pressure measured six hours after the morning instillation of the vehicle
IOP(V-0): Intraocular pressure measured before administering the vehicle

[3] = tested on: cynomolgus monkeys (intraocular pressure); assay: Intraocular pressure-lowering effects by anterior chamber administration; type: in vivo, cynomolgus monkey; conditions: 10 μl of 10^-3 M, 1% DMSO into anterior chamber, vehicle in other eye
Method: Healthy male cynomolgus monkeys weighing 4.0 to 7.0 kg and being four to seven years old were used as experimental animals.
A test compound to be used was dissolved in dimethyl sulfoxide (DMSO), and then phosphate-buffered physiological saline was added to the solution to dilute it at a prescribed concentration (10^-3 M, 1% DMSO), followed by sterilizing the solution by filtration to prepare a test compound solution.
Only vehicle was administered into the other eye.
The intraocular pressure was measured with an applanation tonometer immediately before and prescribed periods after administering the test compound. […]
IOP(D-t): Intraocular pressure of the eye into which the test compound was administered, measured (t) hours after administering the test compound
IOP(D-0): Intraocular pressure of the eye into which the test compound was administered, measured immediately before administering the test compound
IOP(V-t): Intraocular pressure of the eye into which the vehicle was administered, measured (t) hours after administering the vehicle
IOP(V-0): Intraocular pressure of the eye into which the vehicle was administered, measured immediately before administering the vehicle

[4] = tested on: trabecular meshwork cells; conditions: Japanese Examined Patent Publication No. 13013/1995; cited from earlier work

EC50 [1]: 660 nM
Structure (SMILES): C=C(C(=O)c1ccc(/C=C/C(=O)O)cc1)c1c(F)c(F)c(F)c(F)c1F [Compound No. 8-1, 4-[2-(2,3,4,5,6-Pentafluorophenyl)acryloyl]cinnamic acid]

EC50 [1]: 1700 nM
Structure (SMILES): C=C(C(=O)c1ccc(/C=C/C(=O)O)cc1)c1ccc([N+](=O)[O-])cc1 [Compound No. 8-2, 4-[2-(4-Nitrophenyl)acryloyl]cinnamic acid]

EC50 [1]: 810 nM
Structure (SMILES): C=C(C(=O)c1ccc(/C=C/C(=O)O)cc1)c1ccccc1 [Compound No. 8-7, 4-(2-Phenylacryloyl)cinnamic acid]
Intraocular pressure change difference ([2]; 1st day): +5.8 mmHg
Intraocular pressure change difference ([2]; 2nd day): -7.6 mmHg
Intraocular pressure change difference ([2]; 3rd day): -6.6 mmHg
Intraocular pressure change difference ([2]; 4th day): -1.2 mmHg
Intraocular pressure change difference ([2]; 5th day): -6.6 mmHg
Intraocular pressure change difference ([2]; 6th day): -8.6 mmHg
Intraocular pressure change difference ([2]; 7th day): -2.8 mmHg
intraocular pressure-lowering effect (in words) ([2]; instillation, 0.3% solution twice a day for one week): excellent intraocular pressure-lowering effect
disorder in an anterior segment of the eye ([2]; throughout all instillation periods, 0.3% solution twice a day for one week): No disorder was recognized in an anterior segment of the eye
Maximum intraocular pressure-lowering value ([3]; average value of six samples): 7.0 mmHg

EC50 [1]: 3900 nM
Structure (SMILES): C=C(C(=O)c1ccc(/C=C(\C)C(=O)O)cc1)c1ccccc1 [Compound No. 8-9, α-Methyl-4-(2-phenylacryloyl)cinnamic acid]

EC50 [1]: 2900 nM
Structure (SMILES): C=C(C(=O)c1ccc(/C(C)=C/C(=O)O)cc1)c1ccccc1 [Compound No. 8-10, β-Methyl-4-(2-phenylacryloyl)cinnamic acid]

Structure (SMILES): C=C(CC)C(=O)c1ccc(OCC(=O)O)c(Cl)c1Cl [Ethacrynic acid, reference compound]
effect on intraocular pressure and trabecular meshwork cells reported in the literature [4]: lowering intraocular pressure by making a morphological change in trabecular meshwork cells and increasing the rate of aqueous humor outflow
Maximum intraocular pressure-lowering value ([3]; average value of five samples): 2.0 mmHg
EC50 [1]: 62000 nM

From patent US6329547A, “Vinylbenzene derivatives” (Santen Pharmaceutical Co., Ltd., priority 1998, dated 2001)
